Where two headings read alike, the source gives them in different places.
Key:
human MCH-1R = target: T1, human MCH-1R (Homo sapiens, UniProt Q99705); experiment: MCH binding inhibition test; conditions: membranes of CHO-K1 cells expressing human MCH-1R, 50 pM [125I]MCH, 25° C., an hour; read-out: IC50 (50% inhibition concentration to specific [125I]MCH binding)
T1 construct: expressed in transfected cells; host or cells: CHO-K1 (American Type Culture Collection), plasmid vector pEF/myc/cyto (Invitrogen)
Procedure: The obtained expression vector was transfected to a host cell CHO-K1 (American Type Culture Collection) using Lipofectamine Plus Reagent (Life Technology Inc.) to provide MCH-1R expression cells.
After washing the glass filter with 50 mM Tris buffer (pH7.4) comprising 10 mM magnesium chloride, 2 mM ethylenediamine tetraacetate and 0.04% Tween-20, radiative activity on the glass filter was measured. […] MCH binding was determined.

[1] = Brain/cerebrospinal fluid migration test; type: in vivo; conditions: SD male rats, after 2 hours of oral administration (10 mg/kg); for concentration at 2 h: rat
Excerpt: A test compound was orally or intravenously administered to SD male rats (7 to 10 weeks-age, 200 to 400 g). Under anesthesia with ether for a predetermined period of time, from each of the rats whole blood was collected from its abdominal aorta using a heparin-processed syringe. Thereafter the brain skin was cut open and a 30 G needle for dental use was pierced between the cervical vertebrae and inserted into the subarachnoid cavity. Through the tube connected with the dental 30 G needle, 50-100 μL of the cerebrospinal fluid was collected into a 1-mL syringe, and then the brain was taken out. Each blood sample was centrifuged (4° C., 6,000 rpm,10 minutes) and the resulting plasma was stirred with three-fold the amount thereof of ethanol (including an internal standard substance). The brain sample was added with 2 mL of water and homogenized, a part of which was taken and stirred with three-fold the amount thereof of ethanol (including an internal standard substance). The cerebrospinal fluid was stirred with three-fold the amount thereof of ethanol (including an internal standard substance). Those samples were allowed to stand for 20 minutes at −20° C., and then centrifuged (4° C., 12,000 g, 10 minutes). The supernatant was analyzed through LC/MS/MS, and the concentration levels of the test compound in the plasma, in the brain and in the cerebrospinal fluid were quantified according to a relative calibration curve method.

[2] = Internal kinetics test (plasma concentration after oral or intravenous administration); type: in vivo; conditions: SD male rats fasted overnight
Procedure: A test compound was orally or intravenously administered to SD male rats (7 to 10 weeks-age, 200 to 400 g) which had fasted overnight, and within a predetermined period of time, about 100 μL of the blood per rat was collected via the tail vein, using a heparinized capillary. The blood was centrifuged (4° C., 6,000 rpm, 10 minutes) to provide plasma. To the plasma tree-fold the amount thereof of ethanol (including an internal standard substance) was added and stored, followed by standing at −20° C. for 20 minutes and then centrifuge (4° C., 10,000 rpm, 10 minutes). The supernatant was analyzed through LC/MS/MS, and the plasma concentration of the test compound was quantified according to a relative calibration curve method.

T1 sequence (Q99705 whole entry): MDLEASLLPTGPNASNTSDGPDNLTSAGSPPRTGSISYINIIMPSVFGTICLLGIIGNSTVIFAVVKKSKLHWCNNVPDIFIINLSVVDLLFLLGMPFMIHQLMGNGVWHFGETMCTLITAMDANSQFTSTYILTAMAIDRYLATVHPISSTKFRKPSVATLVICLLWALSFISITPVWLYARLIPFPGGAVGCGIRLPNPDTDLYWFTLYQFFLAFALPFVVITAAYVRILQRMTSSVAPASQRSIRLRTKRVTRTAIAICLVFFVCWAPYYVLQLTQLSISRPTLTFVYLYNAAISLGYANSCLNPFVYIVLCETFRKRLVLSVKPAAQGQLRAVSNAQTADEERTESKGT

Row | SMILES | IC50 (human MCH-1R) | other results
1 | C[C@@H]1CC[C@@H](C)N1CCOc1ccc(-n2ccc(OCc3ccc(F)cc3)cc2=O)cc1 (relative stereo) [Example 32, 4-(4-Fluorobenzyloxy)-1-{4-[2-(trans-2,5-dimethyl-1-pyrrolidinyl)ethoxy]-phenyl}-1H-pyridin-2-one] | 3.5 nM | 
2 | CN(C)CCOc1ccc(-n2ccc(OCc3ccccc3)cc2=O)cc1 [Example 1, 4-Benzyloxy-1-{4-[2-(dimethylamino)ethoxy]phenyl}-1H-pyridin-2-one] | 9.5 nM | brain concentration [1]: 2.33 nmol/g; concentration at 2 h ([1]; cerebrospinal fluid, read-out: cerebrospinal fluid concentration): 0.046 µM; concentration at 2 h ([1]; plasma, read-out: plasma concentration): 0.25 µM
3 | O=c1cc(OCc2ccccc2)ccn1-c1ccc(OCCN2CCCCC2)cc1 [Example 2, 4-Benxyloxy-1-{4-[2-(1-piperidinyl)ethoxy]phenyl}-1H-pyridin-2-one] | 4.4 nM | 
4 | CN(CCOc1ccc(-n2ccc(OCc3ccccc3)cc2=O)cc1)Cc1ccccc1 [Example 5, 4-Benzyloxy-1-(4-{2-[benzyl(methyl)amino]ethoxy}phenyl)-1H-pyridin-2-one] | 3.8 nM | 
5 | O=c1cc(OCc2ccccc2)ccn1-c1ccc(OCCN2CCCC2)cc1 [Example 12, 4-Benzyloxy-1-{4-[2-(1-pyrrolidinyl)ethoxy]phenyl}-1H-pyridin-2-one] |  | melting point: 109 to 111 °C
6 | O=c1cc(OCc2ccccc2)ccn1-c1ccc(O[C@@H]2CCN(C3CCCC3)C2)cc1 [Example 18, 4-Benzyloxy-1-(4-{[(3R)-1-cyclopentyl-3-pyrrolidinyl]oxy}-phenyl)-1H-pyridin-2-one] | 4.3 nM | 
7 | CC(C)N1CC[C@@H](Oc2ccc(-n3ccc(OCc4ccccc4)cc3=O)cc2)C1 [Example 19, 4-Benzyloxy-1-(4-{[(3R)-1-isopropyl-3-pyrrolidinyl]oxy}phenyl)-1H-pyridin-2-one] | 5.1 nM | 
8 | Cc1cc(-n2ccc(OCc3ccccc3)cc2=O)ccc1OCCN1CCCCC1 [Example 21] | 2.9 nM | 
9 | O=c1cc(OCc2ccccc2)ccn1-c1ccc(OCCN2CCCC2)c(F)c1 [Example 23, 4-Benzyloxy-1-{3-fluoro-4-[2-(1-pyrrolidinyl)ethoxy]phenyl}-1H-pyridin-2-one] | 5.2 nM | 
10 | O=c1cc(OCc2ccc(F)cc2)ccn1-c1ccc(OCCN2CCCCC2)cc1 [Example 28, 4-(4-Fluorobenzyloxy)-1-{4-[2-(1-piperidinyl)ethoxy]phenyl}-1H-pyridin-2-one] | 4.9 nM | 
11 | O=c1cc(OCc2ccc(F)cc2)ccn1-c1ccc(OCCN2CCCC2)cc1 [Example 29, 4-(4-Fluorobenzyloxy)-1-{4-[2-(1-pyrrolidinyl)ethoxy]phenyl}-1H-pyridin-2-one] | 5.6 nM | half-value period in blood [2]: 3.9 h; bioavailability ([2]; rat, plasma, oral): 79%
12 | CCN(CC)CCOc1ccc(-n2ccc(OCc3ccc(F)cc3)cc2=O)cc1 [Example 30, 1-{4-[2-(Diethylamino)ethoxy]phenyl}-4-(4-fluorobenzyloxy)-1H-pyridin-2-one] | 4.8 nM | 
13 | O=c1cc(OCc2ccc(Cl)cn2)ccn1-c1ccc(OCCN2CCCC2)cc1 [Example 40, 4-[(5-Chloro-2-pyridinyl)methoxy]-1-{4-[2-(1-pyrrolidinyl)ethoxy]phenyl}-1H-pyridin-2-one] |  | melting point: 168 to 170 °C
14 | O=c1cc(/C=C/c2ccc(F)cc2)ccn1-c1ccc(OCCN2CCCC2)cc1 [Example 45, 4-[(E)-2-(4-Fluorophenyl)vinyl]-1-{4-[2-(1-pyrrolidinyl)ethoxy]phenyl}-1H-pyridin-2-one] | 1.5 nM | 
15 | O=c1cc(CCc2ccccc2)ccn1-c1ccc(OCCN2CCCC2)cc1 [Example 53, 4-(2-Phenylethyl)-1-{4-[2-(1-pyrrolidinyl)ethoxy]phenyl}-1H-pyridin-2-one] | 4.4 nM | 
16 | O=c1cc(OCc2ccsc2)ccn1-c1ccc(OCCN2CCCC2)cc1 [Example 68, 1-{4-[2-(1-Pyrrolidinyl)ethoxy]phenyl}-4-(3-thienylmethoxy)-1H-pyridin-2-one] | 4.5 nM | 
17 | COc1ccc(COc2ccn(-c3ccc(OCCN4CCCC4)cc3)c(=O)c2)cc1 [Example 73, 4-(4-Methoxybenzyloxy)-1-{4-[2-(1-pyrrolidinyl)ethoxy]phenyl}-1H-pyridin-2-one] | 7 nM | 

Row | SMILES | IC50 (human MCH-1R) | other results
18 | O=c1cc(OCc2cccc(Cl)c2)ccn1-c1ccc(OCCN2CCCC2)cc1 [Example 75, 4-(3-Chlorobenzyloxy)-1-{4-[2-(1-pyrrolidinyl)ethoxy]phenyl}-1H-pyridin-2-one] | 4.2 nM | 
19 | CCN(CC)CCOc1ccc(-n2ccc(OCc3ccc(F)cc3)nc2=O)cc1 [Example 81] | 7.8 nM | 
20 | O=c1cc(OCc2ccccc2)ccn1-c1ccc(OCCN2C3CCC2CC3)cc1 [Example 86, 1-{4-[2-(7-Azabicyclo[2.2.1]hept-7-yl)ethoxy]phenyl}-4-benzyloxy-1H-pyridin-2-one] | 1.9 nM | 
21 | O=c1cc(OCc2ccc(F)cc2)ccn1-c1ccc(OCCN2C3CCC2CC3)cc1 [Example 90, 1-{4-[2-(7-Azabicyclo[2.2.1]hept-7-yl)ethoxy]phenyl}-4-(4-fluorobenzyloxy)-1H-pyridin-2-one] | 2.7 nM | 
22 | O=c1cc(OCc2ccc(F)cc2)ccn1-c1ccc(OCCN2C3CCCC2CC3)cc1 [Example 91, 1-{4-[2-(8-Azabicylo[3.2.1]oct-8yl)ethoxy]phenyl}-4-(4-fluorobenzyloxy)-1H-pyridin-2-one] | 3.5 nM | 
23 | O=c1cc(OCc2ccc(F)cc2)ccn1-c1ccc(O[C@@H]2C[C@H]3CCCN3C2)cc1 [Example 92, 4-(4-Fluorobenzyloxy)-1-{4-[(2R,7aR)-hexahydro-1H-pyrrolidin-2-yloxy]phenyl}-1H-pyridin-2-one] | 8.8 nM | 
24 | O=C1CCCN1CCOc1ccc(-n2ccc(OCc3ccc(F)cc3)cc2=O)cc1 [Example 95, 4-(4-Fluorobenzyloxy)-1-{4-[2-(2-oxo-1-pyrrolidinyl)ethoxy]phenyl}-1H-pyridin-2-one] |  | melting point: 148 to 149 °C
25 | CCN(CC)CCOc1ccc(-n2ccc(OCc3ccc(Cl)cn3)cc2=O)cc1 [Example 101] | 5.4 nM | melting point: 112 to 115 °C
26 | CCN(C)CCOc1ccc(-n2ccc(OCc3ccc(Cl)cn3)cc2=O)cc1 [Example 114, 4-[(5-Chloro-2-pyridinyl)methoxy]-1-(4-{2-[ethyl(methyl)amino]ethoxy}-phenyl)-1H-pyridin-2-one] | 5.4 nM | 
27 | CC(C)N(C)CCOc1ccc(-n2ccc(OCc3ccc(Cl)cn3)cc2=O)cc1 [Example 115, 4-[(5-Chloro-2-pyridinyl)methoxy]-1-(4-{2-[isopropyl(methyl)amino]ethoxy}-phenyl)-1H-pyridin-2-one] | 5.5 nM | melting point: 137 to 138 °C
28 | CCCN(C)CCOc1ccc(-n2ccc(OCc3ccc(Cl)cn3)cc2=O)cc1 [Example 116, 4-[(5-Chloro-2-pyridinyl)methoxy]-1-(4-{2-[methyl(propyl)amino]ethoxy}-phenyl)-1H-pyridin-2-one] |  | melting point: 119 to 123 °C
29 | CC(C)N1CC[C@@H](Oc2ccc(-n3ccc(OCc4ccc(Cl)cn4)cc3=O)cc2)C1 [Example 122, 4-[(5-Chloro-2-pyridinyl)methoxy]-1-(4-{[(3R)-1-isopropyl-3-pyrrolidinyl]-oxy}phenyl)-1H-pyridin-2-one] |  | melting point: 154 to 155 °C
30 | CCN1CC[C@@H](Oc2ccc(-n3ccc(OCc4ccc(Cl)cn4)cc3=O)cc2)C1 [Example 123, 4-[(5-Chloro-2-pyridinyl)methoxy]-1-(4-{[(3R)-1-ethyl-3-pyrrolidinyl]-oxy}phenyl)-1H-pyridin-2-one] |  | melting point: 145 to 146 °C
31 | CN1CC[C@@H](Oc2ccc(-n3ccc(OCc4ccc(Cl)cn4)cc3=O)cc2)C1 [Example 124, 4-[(5-Chloro-2-pyridinyl)methoxy]-1-(4-{[(3R)-1-methyl-3-pyrrolidinyl]-oxy}phenyl)-1H-pyridin-2-one] | 6.8 nM | 
32 | O=c1cc(OCc2ccc(Cl)cn2)ccn1-c1ccc(OC[C@H]2CCCN2C2CCC2)cc1 [Example 133] | 4.7 nM | 
33 | CN1CCC[C@H]1COc1ccc(-n2ccc(OCc3ccc(Cl)cn3)cc2=O)cc1 [Example 134, 4-[(5-Chloro-2-pyridinyl)methoxy]-1-(4-{[(2S)-1-methyl-2-pyrrolidinyl]-methoxy}phenyl)-1H-pyridin-2-one] | 8.6 nM | 

— US7732456B2, “Pyridone derivative” (Banyu Pharmaceutical Co., Ltd., priority 2004, dated 2010)
